Source: US10072017B2, “Compounds and methods for the treatment of cystic fibrosis” (Flatley Discovery Lab, LLC, priority 2015, dated 2018)

Target: T1, CFTR (Homo sapiens, UniProt P13569, DEL508-508)
T1 construct: Primary CF airway epithelial cells were obtained from the UNC Cystic Fibrosis Tissue Procurement and Cell Culture Core; host or cells: primary CF airway epithelial cells
Assay: Equivalent current assay in Primary CF airway epithelial cells (NAUC)
Type: cell-based
Conditions: 24 h, normalized to VX809 (3 μM) positive control; for Nauc @ 3 μM: 3 μM test compound; for Nauc @ 10 μM: 10 μM test compound
Outline: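 Primary CF airway epithelia differentiated ≥4 weeks at air-liquid interface, treated basolaterally 24 h at 37 °C with test compounds in combination with VX809, 0.1% DMSO vehicle. Equivalent current recorded after 5 μM benzamil, 10 μM forskolin plus 1 μM VX770, then CFTR-172/bumetanide 20 μM; vehicle-subtracted AUC normalized to 3 μM VX809 (NAUC), median of n≥4, sigmoid fit for EC50.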

T1 sequence (P13569 with tags, fused parts or gaps DEL508-508): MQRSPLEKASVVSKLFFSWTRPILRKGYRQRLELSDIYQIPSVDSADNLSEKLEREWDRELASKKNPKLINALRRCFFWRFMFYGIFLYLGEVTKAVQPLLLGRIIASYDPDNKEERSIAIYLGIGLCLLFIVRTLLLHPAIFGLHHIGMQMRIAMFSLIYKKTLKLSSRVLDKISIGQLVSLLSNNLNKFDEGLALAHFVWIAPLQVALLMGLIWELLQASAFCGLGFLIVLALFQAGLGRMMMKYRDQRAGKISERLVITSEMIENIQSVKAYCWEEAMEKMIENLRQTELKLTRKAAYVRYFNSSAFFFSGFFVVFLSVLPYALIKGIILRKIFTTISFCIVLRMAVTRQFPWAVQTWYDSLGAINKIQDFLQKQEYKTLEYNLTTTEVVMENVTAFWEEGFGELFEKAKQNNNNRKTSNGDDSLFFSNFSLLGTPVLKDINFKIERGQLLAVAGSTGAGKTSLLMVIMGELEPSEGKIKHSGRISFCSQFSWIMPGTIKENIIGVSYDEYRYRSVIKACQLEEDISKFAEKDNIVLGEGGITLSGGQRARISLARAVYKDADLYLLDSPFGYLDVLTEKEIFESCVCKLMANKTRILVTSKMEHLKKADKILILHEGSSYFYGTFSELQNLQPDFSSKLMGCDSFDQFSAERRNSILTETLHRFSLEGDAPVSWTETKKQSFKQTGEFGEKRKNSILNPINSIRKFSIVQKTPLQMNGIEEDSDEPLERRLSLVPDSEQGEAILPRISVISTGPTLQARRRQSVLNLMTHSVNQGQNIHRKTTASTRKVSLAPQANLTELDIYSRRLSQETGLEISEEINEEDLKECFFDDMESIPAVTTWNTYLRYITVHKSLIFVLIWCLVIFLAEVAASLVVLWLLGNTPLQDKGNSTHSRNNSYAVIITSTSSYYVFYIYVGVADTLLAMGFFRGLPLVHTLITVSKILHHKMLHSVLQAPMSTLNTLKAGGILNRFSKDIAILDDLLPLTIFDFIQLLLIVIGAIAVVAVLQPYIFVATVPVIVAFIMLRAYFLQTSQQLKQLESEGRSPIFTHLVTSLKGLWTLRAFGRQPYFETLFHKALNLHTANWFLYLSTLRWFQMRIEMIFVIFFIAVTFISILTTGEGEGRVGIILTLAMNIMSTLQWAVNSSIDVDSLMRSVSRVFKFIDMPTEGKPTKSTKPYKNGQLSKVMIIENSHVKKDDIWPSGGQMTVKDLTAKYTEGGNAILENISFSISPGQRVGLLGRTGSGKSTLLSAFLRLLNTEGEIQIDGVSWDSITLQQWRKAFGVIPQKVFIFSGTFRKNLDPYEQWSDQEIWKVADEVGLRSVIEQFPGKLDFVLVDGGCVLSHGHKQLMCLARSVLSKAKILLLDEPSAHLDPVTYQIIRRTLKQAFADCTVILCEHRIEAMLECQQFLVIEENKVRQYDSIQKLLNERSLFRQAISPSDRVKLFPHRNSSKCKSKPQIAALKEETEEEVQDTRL

Row | Structure (SMILES) | Nauc @ 3 μM | Nauc @ 10 μM
1 | O=C1C2C(Cc3c(Cl)cccc3Cl)NC3(C(=O)Nc4c(Cl)cc(Cl)cc43)C2C(=O)N1c1cc(Cl)cc(Cl)c1 (centres unmarked) [Example 228] | +++ (NAUC “+++” refers to an observed NAUC >170% of positive control) | ++ (NAUC “++” refers to an observed NAUC 170-140% of positive control)
2 | O=C1C2C3CCCN3C3(C(=O)Nc4c(Cl)cc(Cl)cc43)C2C(=O)N1c1ncc(Cl)s1 (centres unmarked) [Example 229] | + (NAUC “+” refers to an observed NAUC <140% of positive control) | ++ (NAUC “++” refers to an observed NAUC 170-140% of positive control)
3 | C[C@]1(F)CC2C3C(=O)N(c4cc(Cl)cc(Cl)n4)C(=O)C3C3(C(=O)Nc4c(Cl)cc(Cl)cc43)N2C1 (some centres unmarked) [Example 231] | + (NAUC “+” refers to an observed NAUC <140% of positive control) | +++ (NAUC “+++” refers to an observed NAUC >170% of positive control)
4 | C[C@]1(O)CC2C3C(=O)N(c4cccc(F)n4)C(=O)C3C3(C(=O)Nc4c(Cl)cc(Cl)cc43)N2C1 (some centres unmarked) [Example 233] | +++ (NAUC “+++” refers to an observed NAUC >170% of positive control) | ++ (NAUC “++” refers to an observed NAUC 170-140% of positive control)
5 | C[C@]1(O)CC2C3C(=O)N(c4ccon4)C(=O)C3C3(C(=O)Nc4c(Cl)cc(Cl)cc43)N2C1 (some centres unmarked) [Example 234] | + (NAUC “+” refers to an observed NAUC <140% of positive control) | ++ (NAUC “++” refers to an observed NAUC 170-140% of positive control)
6 | CC(C)C1NC2(C(=O)Nc3c(Cl)cc(Cl)cc32)C2C(=O)N(c3cc(Cl)cc(Cl)c3)C(=O)C12 (centres unmarked) [Example 235] | +++ (NAUC “+++” refers to an observed NAUC >170% of positive control) | +++ (NAUC “+++” refers to an observed NAUC >170% of positive control)
7 | O=C1C2C(Cc3ccccc3Cl)NC3(C(=O)Nc4c(Cl)cc(Cl)cc43)C2C(=O)N1c1cc(Cl)cc(Cl)c1 (centres unmarked) [Example 236] | +++ (NAUC “+++” refers to an observed NAUC >170% of positive control) | ++ (NAUC “++” refers to an observed NAUC 170-140% of positive control)
8 | Cc1cc(CC2NC3(C(=O)Nc4c(Cl)cc(Cl)cc43)C3C(=O)N(c4cc(Cl)cc(Cl)c4)C(=O)C23)no1 (centres unmarked) [Example 237] | ++ (NAUC “++” refers to an observed NAUC 170-140% of positive control) | + (NAUC “+” refers to an observed NAUC <140% of positive control)
9 | Cc1cccc(CC2NC3(C(=O)Nc4c(Cl)cc(Cl)cc43)C3C(=O)N(c4cc(Cl)cc(Cl)c4)C(=O)C23)n1 (centres unmarked) [Example 238] | + (NAUC “+” refers to an observed NAUC <140% of positive control) | ++ (NAUC “++” refers to an observed NAUC 170-140% of positive control)
10 | O=C1C2C3C[C@H](O)CN3C3(C(=O)Nc4c(Cl)cc(Cl)cc43)C2C(=O)N1c1cc(Cl)c(OC(F)F)c(Cl)c1 (some centres unmarked) [Example 244] | ++ (NAUC “++” refers to an observed NAUC 170-140% of positive control) | ++ (NAUC “++” refers to an observed NAUC 170-140% of positive control)
11 | COc1c(Cl)cc(N2C(=O)C3C4C[C@H](C(F)(F)F)CN4C4(C(=O)Nc5c(Cl)cc(Cl)cc54)C3C2=O)cc1Cl (some centres unmarked) [Example 245] | +++ (NAUC “+++” refers to an observed NAUC >170% of positive control) | +++ (NAUC “+++” refers to an observed NAUC >170% of positive control)
12 | O=C1C2C(Cc3ccccc3Cl)NC3(C(=O)Nc4c(Cl)cc(Cl)cc43)C2C(=O)N1c1cc(Cl)cc(Cl)c1 (centres unmarked) [Example 246] | +++ (NAUC “+++” refers to an observed NAUC >170% of positive control) | +++ (NAUC “+++” refers to an observed NAUC >170% of positive control)
13 | Cc1nc(CC2NC3(C(=O)Nc4c(Cl)cc(Cl)cc43)C3C(=O)N(c4cc(Cl)cc(Cl)c4)C(=O)C23)cs1 (centres unmarked) [Example 248] | + (NAUC “+” refers to an observed NAUC <140% of positive control) | ++ (NAUC “++” refers to an observed NAUC 170-140% of positive control)
14 | O=C1C2C3CCCN3C3(C(=O)Nc4c(Cl)cc(Cl)cc43)C2C(=O)N1c1cccc(C(F)(F)F)n1 (centres unmarked) [Example 251] | +++ (NAUC “+++” refers to an observed NAUC >170% of positive control) | +++ (NAUC “+++” refers to an observed NAUC >170% of positive control)
15 | Cc1cnc(CC2NC3(C(=O)Nc4c(Cl)cc(Cl)cc43)C3C(=O)N(c4cc(Cl)cc(Cl)c4)C(=O)C23)cn1 (centres unmarked) [Example 252] | ++ (NAUC “++” refers to an observed NAUC 170-140% of positive control) | ++ (NAUC “++” refers to an observed NAUC 170-140% of positive control)
16 | C[C@]1(O)CC2C3C(=O)N(c4cccc(C(F)(F)F)n4)C(=O)C3C3(C(=O)Nc4c(Cl)cc(Cl)cc43)N2C1 (some centres unmarked) [Example 253] | + (NAUC “+” refers to an observed NAUC <140% of positive control) | ++ (NAUC “++” refers to an observed NAUC 170-140% of positive control)
